From US20230135894A1, “MK2 DEGRADERS AND USES THEREOF” (Kymera Therapeutics, Inc., priority 2021, published 2023)

Key:
MK2 [1] = target: T1, MK2 (Homo sapiens, UniProt P49137); assay: MK2 degradation in human THP-1 monocytic cells (MSD, 24 h); format: cell-based; design: endogenous in cells; key to MK2 MSD THP-1 degradation 24 h GMean External Abs DC50: A (<0.001 μM); B (0.001-0.01 μM); C (0.01-0.1 μM); D (>0.1 μM); —: “-”=not tested or inactive; details: for Dmax: THP-1, THP-1 cells; for MK2 MSD THP-1 degradation 24 h GMean External Abs DC50 / DC50: THP-1 cells; for DC50: read-out: MK2 MSD THP-1 degradation 24 h GMean External Abs DC50
Outline: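 THP-1 cells (200,000/well) treated 24 h at 37 °C with compound dilution series (up to 10 points, 0.1% DMSO). MK2 in RIPA lysates quantified by MSD sandwich immunoassay. DC50 from 4-parameter logistic fit, DMSO-treated cells as high and lysis buffer as low signal.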

MK2 [2] = target: T1, MK2; assay: MK2 degradation in human SW1353 cells (MSD, 24 h); format: cell-based; design: endogenous in cells; host or cells: SW-1353 (ATCC HTB-94); key to MK2 MSD SW1353 degradation 24 h GMean External Abs DC50: A (<0.001 μM); B (0.001-0.01 μM); C (0.01-0.1 μM); D (>0.1 μM); —: “-”=not tested or inactive; key to MK2 MSD SW 1353 24 h Dmax %: —: “-”=not tested or inactive; details: for Dmax: read-out: MK2 MSD SW 1353 24 h Dmax %; for DC50: read-out: MK2 MSD SW1353 degradation 24 h GMean External Abs DC50
Outline: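 SW1353 chondrosarcoma cells were treated with up to 10-point serial dilutions (0.1% DMSO) for 24 h at 37 °C, then lysed in RIPA buffer. MK2 levels were quantified by MSD sandwich immunoassay; DC50 came from a 4-parameter logistic fit normalised to DMSO-treated cells (high) and lysis buffer (low).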

T1 sequence (P49137 whole entry): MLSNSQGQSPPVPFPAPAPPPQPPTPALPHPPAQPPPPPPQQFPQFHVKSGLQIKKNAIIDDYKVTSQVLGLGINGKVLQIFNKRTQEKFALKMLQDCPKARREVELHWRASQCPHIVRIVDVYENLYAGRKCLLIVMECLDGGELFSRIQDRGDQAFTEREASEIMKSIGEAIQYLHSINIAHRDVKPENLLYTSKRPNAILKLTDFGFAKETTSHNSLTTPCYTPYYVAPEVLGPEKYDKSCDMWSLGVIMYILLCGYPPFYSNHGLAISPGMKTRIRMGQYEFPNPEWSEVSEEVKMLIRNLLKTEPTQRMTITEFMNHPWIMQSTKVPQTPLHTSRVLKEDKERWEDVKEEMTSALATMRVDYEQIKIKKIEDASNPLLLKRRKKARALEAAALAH

| Dmax (MK2 [1]) [%] | MK2 MSD THP-1 degradation 24 h GMean External Abs DC50 (MK2 [1]) | MK2 MSD SW1353 degradation 24 h GMean External Abs DC50 (MK2 [2]) | Dmax (MK2 [2]) [%] | DC50 (MK2 [1]) [nM] | DC50 (MK2 [2]) [nM] | MK2 MSD SW 1353 24 h Dmax % (MK2 [2]) | Compound |
| --- | --- | --- | --- | --- | --- | --- | --- |
| > 75 | — | — | > 75 |  |  |  | C[C@@H]1CNc2c(sc3ccc4nc(N5CCN(CC6CCN(c7ccc(-c8ccc9c(c8)n(C)c(=O)n9C8CCC(=O)NC8=O)cc7)CC6)CC5)ccc4c23)C(=O)N1 (stereo partly shown) [Compound I-184] |
| 50 to 75 |  |  | 50 to 75 | 1 to 10 | < 1 |  | Cc1cc(N2CCN(CCCc3ccc4c(c3)n(C)c(=O)n4C3CCC(=O)NC3=O)CC2)ncc1-c1ccc2c(ccc3sc4c(c32)NC[C@@H](C)NC4=O)n1 (stereo partly shown) [Compound I-249] |
| > 75 |  |  | > 75 | < 1 | < 1 |  | Cc1cc(-c2ccc3c(ccc4sc5c(c43)NC[C@@H](C)NC5=O)n2)cnc1N1CCN(CC2CCN(c3ccc4c(c3)n(C)c(=O)n4C3CCC(=O)NC3=O)CC2)CC1 (stereo partly shown) [Compound I-272] |
| > 75 |  |  | > 75 | < 1 | < 1 |  | C[C@@H]1CNc2c(sc3ccc4nc(-c5ccc(N6CCN(C7CC(c8cccc9c8n(C)c(=O)n9C8CCC(=O)NC8=O)C7)CC6)cc5)ccc4c23)C(=O)N1 (stereo partly shown) [Compound I-246] |
| > 75 |  |  | > 75 | < 1 | 1 to 10 |  | C[C@@H]1CNc2c(sc3ccc4nc(-c5cccc(N6CCC(CN7CCC(c8cccc9c8n(C)c(=O)n9C8CCC(=O)NC8=O)CC7)CC6)c5)ccc4c23)C(=O)N1 (stereo partly shown) [Compound I-96] |
| > 75 |  |  | > 75 | 1 to 10 | 1 to 10 |  | C[C@@H]1CNc2c(sc3ccc4nc(-c5ccc(N6CCN(CC7CCN(c8cccc(C9CCC(=O)NC9=O)c8)CC7)CC6)nc5)ccc4c23)C(=O)N1 (stereo partly shown) [Compound I-420] |
| < 50 |  |  | 50 to 75 | > 100 | 10 to 100 |  | CCc1cc(-c2cc(-c3cc4c([nH]3)CCNC4=O)ccn2)cc(CC)c1N1CCN(CC2CCN(c3ccc4c(c3)n(C)c(=O)n4C3CCC(=O)NC3=O)CC2)CC1 (stereo not shown) [Compound I-447] |
| > 75 |  |  | > 75 | 1 to 10 | 1 to 10 |  | O=C1CCN(c2cncc3c(N4CC(CN5CCN(c6ccc(-c7cc(-c8cc9c([nH]8)C8(CC8)CNC9=O)ccn7)cc6)CC5)C4)cccc23)C(=O)N1 [Compound I-188] |
| < 50 |  |  | < 50 | > 100 | > 100 |  | Cc1cnc(-c2ccnc(C(=O)NCCCCCCc3ccc4c(c3)n(C)c(=O)n4C3CCC(=O)NC3=O)n2)cc1-n1c(C)cc(OCc2ncc(F)cc2F)c(Cl)c1=O (stereo not shown) [Compound I-220] |
| > 75 |  |  | > 75 | 1 to 10 | 1 to 10 |  | C[C@@H]1CNc2c(sc3ccc4nc(-c5ccc(N6CCC(CCN7CCN(c8cccc9c8n(C)c(=O)n9C8CCC(=O)NC8=O)CC7)CC6)cc5)ccc4c23)C(=O)N1 (stereo partly shown) [Compound I-128] |
| > 75 |  |  | > 75 | 1 to 10 | < 1 |  | C[C@@H]1Cc2oc(-c3ccnc(-c4ccc(N5CCN(CC6CN(c7ccc8c(c7)n(C)c(=O)n8C7CCC(=O)NC7=O)C6)CC5)nc4)c3)cc2C(=O)N1 (stereo partly shown) [Compound I-417] |
| 50 to 75 |  |  | > 75 | 1 to 10 | 1 to 10 |  | Cn1c(=O)n(C2CCC(=O)NC2=O)c2cccc(CCCN3CCN(c4ccc(-c5cc(-c6cc7c([nH]6)C6(CC6)CNC7=O)ccn5)cc4)CC3)c21 (stereo not shown) [Compound I-241] |
| > 75 |  |  | > 75 | < 1 | < 1 |  | Cn1c(=O)n(C2CCC(=O)NC2=O)c2ccc(N3CCC(CN4CCN(c5ccc(-c6cc(-c7cc8c([nH]7)CCNC8=O)ccn6)c(F)c5)CC4)CC3)cc21 (stereo not shown) [Compound I-226] |
| > 75 |  |  | > 75 | < 1 | < 1 |  | C[C@@H]1CNc2c(sc3ccc4nc(-c5ccc(N6CCN(CC7CN(c8ccc9c(c8)n(C)c(=O)n9C8CCC(=O)NC8=O)C7)CC6)nc5)ccc4c23)C(=O)N1 (stereo partly shown) [Compound I-254] |
| < 50 |  |  | < 50 | > 100 | > 100 |  | Cn1c(=O)n(C2CCC(=O)NC2=O)c2cccc(CCCCCN3CCN(c4ccc(F)c(-c5cc(-c6cc7c([nH]6)CCNC7=O)ccn5)c4)CC3)c21 (stereo not shown) [Compound I-134] |
| < 50 | — |  | > 75 |  | 1 to 10 |  | Cc1nc(N2CCN(CCCc3ccc4c(c3)n(C)c(=O)n4C3CCC(=O)NC3=O)CC2)ccc1-c1ccc2c(ccc3sc4c(c32)NC[C@@H](C)NC4=O)n1 (stereo partly shown) [Compound I-259] |

| Dmax (MK2 [1]) [%] | MK2 MSD THP-1 degradation 24 h GMean External Abs DC50 (MK2 [1]) | MK2 MSD SW1353 degradation 24 h GMean External Abs DC50 (MK2 [2]) | Dmax (MK2 [2]) [%] | DC50 (MK2 [1]) [nM] | DC50 (MK2 [2]) [nM] | MK2 MSD SW 1353 24 h Dmax % (MK2 [2]) | Compound |
| --- | --- | --- | --- | --- | --- | --- | --- |
| < 50 |  |  | < 50 | > 100 | > 100 |  | COc1cc(N2CCN(CC3CCN(c4ccc5c(c4)n(C)c(=O)n5C4CCC(=O)NC4=O)CC3)CC2)cc(-n2cc(-c3ccc4c(c3)CCNC4=O)c(N)n2)c1 (stereo not shown) [Compound I-459] |
| > 75 |  |  | > 75 | 1 to 10 | 1 to 10 |  | C[C@@H]1CNc2c(sc3ccc4nc(-c5cncc(N6CCN(C(=O)COCCOCCc7cccc8c7n(C)c(=O)n8C7CCC(=O)NC7=O)CC6)c5)ccc4c23)C(=O)N1 (stereo partly shown) [Compound I-100] |
| > 75 |  |  | > 75 | < 1 | 1 to 10 |  | C[C@@H]1CNc2c(sc3ccc4nc(-c5ccc(N6CCC(CN7CCN(c8cccc9c(N%10CCC(=O)NC%10=O)cncc89)CC7)CC6)cc5)ccc4c23)C(=O)N1 [Compound I-317] |
| > 75 |  |  | > 75 | < 1 | < 1 |  | C[C@@H]1CN(C)c2c(sc3ccc4nc(-c5ccc(N6CCN(CC7CN(c8ccc9c(c8)n(C)c(=O)n9C8CCC(=O)NC8=O)C7)CC6)nc5)ccc4c23)C(=O)N1 (stereo partly shown) [Compound I-412] |
| > 75 |  |  | > 75 | < 1 | < 1 |  | Cn1c(=O)n(C2CCC(=O)NC2=O)c2ccc(N3CC(CN4CCN(c5ccc(-c6nccc(-c7cc8c([nH]7)C7(CC7)CNC8=O)n6)cc5)CC4)C3)cc21 (stereo not shown) [Compound I-426] |
| > 75 |  |  | > 75 | < 1 | < 1 |  | Cn1c(=O)n(C2CCC(=O)NC2=O)c2ccc(N3CCC(CN4CCN(c5ccc(-c6cc(-c7cc8c([nH]7)C7(CCC7)CNC8=O)ccn6)cn5)CC4)CC3)cc21 (stereo not shown) [Compound I-213] |
| > 75 |  | — |  | 1 to 10 |  | — | Cn1c(=O)n(C2CCC(=O)NC2=O)c2cccc(CCCN3CCN(c4ccc(-c5cc(-c6cc7c([nH]6)C6(CCC6)CNC7=O)ccn5)cc4)CC3)c21 (stereo not shown) [Compound I-204] |
| > 75 |  |  | > 75 | 1 to 10 | 1 to 10 |  | C[C@@H]1CN(C)c2c(sc3ccc4nc(-c5ccc(N6CCC(CN7CCN(c8ccc9c(c8)n(C)c(=O)n9C8CCC(=O)NC8=O)CC7)CC6)cc5)ccc4c23)C(=O)N1 (stereo partly shown) [Compound I-253] |
| > 75 |  |  | > 75 | < 1 | 10 to 100 |  | C[C@@H]1CNc2c(sc3ccc4nc(-c5cccc(N6CCC7(CC6)CN(CCCCCCc6cccc8c6n(C)c(=O)n8C6CCC(=O)NC6=O)C7)c5)ccc4c23)C(=O)N1 (stereo partly shown) [Compound I-293] |
| > 75 |  |  | > 75 | < 1 | < 1 |  | C[C@@H]1CNc2c(sc3ccc4nc(-c5ccc(N6CCN(CCCc7ccc8c(c7)n(C)c(=O)n8C7CCC(=O)NC7=O)CC6)cc5F)ccc4c23)C(=O)N1 (stereo partly shown) [Compound I-252] |
| > 75 |  |  | > 75 | 1 to 10 | 1 to 10 |  | C[C@@H]1CNc2c(sc3ccc4nc(-c5ccc(CNC(=O)CCCCCCCc6ccc7c(c6)n(C)c(=O)n7C6CCC(=O)NC6=O)cc5)ccc4c23)C(=O)N1 (stereo partly shown) [Compound I-87] |
| > 75 |  | — |  | < 1 |  | — | Cn1c(=O)n(C2CCC(=O)NC2=O)c2ccc(N3CCC(CN4CCN(c5ccc(-c6cc(-c7cc8c([nH]7)C7(CCC7)CNC8=O)ccn6)cc5)CC4)CC3)cc21 (stereo not shown) [Compound I-205] |
| > 75 |  |  | > 75 | < 1 | < 1 |  | C[C@@H]1CNc2c(sc3ccc4nc(-c5ccc(N6CCN(C[C@H]7C[C@H](c8ccc9c(c8)n(C)c(=O)n9C8CCC(=O)NC8=O)C7)CC6)cc5)ccc4c23)C(=O)N1 (stereo partly shown) [Compound I-222] |
| > 75 |  |  | > 75 | < 1 | < 1 |  | Cn1c(=O)n(C2CCC(=O)NC2=O)c2ccc(N3CC(CN4CCN(c5ccc(-c6cc(-c7cc8c([nH]7)C7(CCCC7)CNC8=O)ccn6)cc5)CC4)C3)cc21 (stereo not shown) [Compound I-415] |
| < 50 |  | — |  | > 100 |  | — | Cn1c(=O)n(C2CCC(=O)NC2=O)c2ccc(CCN3CCN(c4ccc(-c5cc(-c6cc7c([nH]6)C6(CC6)CNC7=O)ccn5)cn4)CC3)cc21 (stereo not shown) [Compound I-201] |
